Laboratory results as given in PubChem BioAssay (NCI).
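The compound was tested at five concentrations on cells cultured in 96-well plates, with a 48-hour exposure period. Definition used: TGI = concentration required for complete inhibition of growth.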 Where a SMILES comes first, the peptide text is derived from it. Bridges are numbered along the chain shown (N, C = ends). [ ]: non-standard residue; d: D form. The star is where a group is joined. ξ: configuration not given here. PhAc = O=C(Cc1ccccc1)*; ξP = O=C(O)C1CCCN1

The compounds below were run on MOLT-4 leukemia (assay: growth of human tumour cells (NCI), 48 h).

Compound | TGI
O=C(Cc1ccccc1)N[C@@H]1COC(=O)C2CCCN2C(=O)[C@@H]2CCCN2C1=O (stereo not given in full) (PhAc-[dS]-Pro-[ξP]; ester 1-C) | > 100 µM

These compounds were tested on NCI-H226 lung (assay: growth of human tumour cells (NCI), 48 h).

Compound | TGI
Cc1ccc2c(=O)cc(-c3ccc(Cl)cc3)[nH]c2n1 | 82 µM
CCOP(=O)(OCC)/C(=C\n1c(=S)[nH]c2cc(C)ccc21)C(=O)OC | > 100 µM
O=C1C2=Cc3ccccc3OC2(O)Oc2cc(O)cc(O)c21 (stereo not given) | > 100 µM
COc1ccc(-c2cc(-c3ccccc3)nc(N)c2-c2ccc3ccccc3c2)cc1 | 2.99 µM
O=C(Cc1ccccc1)N[C@@H]1COC(=O)C2CCCN2C(=O)[C@@H]2CCCN2C1=O (stereo not given in full) (PhAc-[dS]-Pro-[ξP]; ester 1-C) | > 100 µM

Each compound was assayed on NCI-H23 lung (assay: growth of human tumour cells (NCI), 48 h).

Compound | TGI
Cc1ccc2c(=O)cc(-c3ccc(Cl)cc3)[nH]c2n1 | > 100 µM
CCOP(=O)(OCC)/C(=C\n1c(=S)[nH]c2cc(C)ccc21)C(=O)OC | > 100 µM
O=C1C2=Cc3ccccc3OC2(O)Oc2cc(O)cc(O)c21 (stereo not given) | > 100 µM
COc1ccc(-c2cc(-c3ccccc3)nc(N)c2-c2ccc3ccccc3c2)cc1 | 3.71 µM
O=C(Cc1ccccc1)N[C@@H]1COC(=O)C2CCCN2C(=O)[C@@H]2CCCN2C1=O (stereo not given in full) (PhAc-[dS]-Pro-[ξP]; ester 1-C) | > 100 µM

What follows are compounds tested on NCI-H460 lung (assay: growth of human tumour cells (NCI), 48 h).

Compound | TGI
Cc1ccc2c(=O)cc(-c3ccc(Cl)cc3)[nH]c2n1 | > 100 µM
CCOP(=O)(OCC)/C(=C\n1c(=S)[nH]c2cc(C)ccc21)C(=O)OC | > 100 µM
O=C1C2=Cc3ccccc3OC2(O)Oc2cc(O)cc(O)c21 (stereo not given) | > 100 µM
COc1ccc(-c2cc(-c3ccccc3)nc(N)c2-c2ccc3ccccc3c2)cc1 | 2.9 µM
O=C(Cc1ccccc1)N[C@@H]1COC(=O)C2CCCN2C(=O)[C@@H]2CCCN2C1=O (stereo not given in full) (PhAc-[dS]-Pro-[ξP]; ester 1-C) | > 100 µM

What follows are compounds tested on NCI-H522 lung (assay: growth of human tumour cells (NCI), 48 h).

Compound | TGI
Cc1ccc2c(=O)cc(-c3ccc(Cl)cc3)[nH]c2n1 | > 100 µM

Each compound was assayed on NCI/ADR-RES ovarian (assay: growth of human tumour cells (NCI), 48 h).

Compound | TGI
Cc1ccc2c(=O)cc(-c3ccc(Cl)cc3)[nH]c2n1 | > 28.3 µM
CCOP(=O)(OCC)/C(=C\n1c(=S)[nH]c2cc(C)ccc21)C(=O)OC | > 100 µM
O=C1C2=Cc3ccccc3OC2(O)Oc2cc(O)cc(O)c21 (stereo not given) | > 100 µM
O=C(Cc1ccccc1)N[C@@H]1COC(=O)C2CCCN2C(=O)[C@@H]2CCCN2C1=O (stereo not given in full) (PhAc-[dS]-Pro-[ξP]; ester 1-C) | > 100 µM

What follows are compounds tested on OVCAR-3 ovarian (assay: growth of human tumour cells (NCI), 48 h).

Compound | TGI
Cc1ccc2c(=O)cc(-c3ccc(Cl)cc3)[nH]c2n1 | > 30.2 µM
CCOP(=O)(OCC)/C(=C\n1c(=S)[nH]c2cc(C)ccc21)C(=O)OC | > 100 µM
COc1ccc(-c2cc(-c3ccccc3)nc(N)c2-c2ccc3ccccc3c2)cc1 | 5.08 µM
O=C(Cc1ccccc1)N[C@@H]1COC(=O)C2CCCN2C(=O)[C@@H]2CCCN2C1=O (stereo not given in full) (PhAc-[dS]-Pro-[ξP]; ester 1-C) | > 100 µM

These compounds were tested on OVCAR-4 ovarian (assay: growth of human tumour cells (NCI), 48 h).

Compound | TGI
Cc1ccc2c(=O)cc(-c3ccc(Cl)cc3)[nH]c2n1 | > 100 µM
CCOP(=O)(OCC)/C(=C\n1c(=S)[nH]c2cc(C)ccc21)C(=O)OC | > 100 µM
O=C1C2=Cc3ccccc3OC2(O)Oc2cc(O)cc(O)c21 (stereo not given) | > 100 µM
COc1ccc(-c2cc(-c3ccccc3)nc(N)c2-c2ccc3ccccc3c2)cc1 | 2.42 µM
O=C(Cc1ccccc1)N[C@@H]1COC(=O)C2CCCN2C(=O)[C@@H]2CCCN2C1=O (stereo not given in full) (PhAc-[dS]-Pro-[ξP]; ester 1-C) | > 100 µM

Each compound was assayed on OVCAR-5 ovarian (assay: growth of human tumour cells (NCI), 48 h).

Compound | TGI
Cc1ccc2c(=O)cc(-c3ccc(Cl)cc3)[nH]c2n1 | > 100 µM
CCOP(=O)(OCC)/C(=C\n1c(=S)[nH]c2cc(C)ccc21)C(=O)OC | > 100 µM
O=C1C2=Cc3ccccc3OC2(O)Oc2cc(O)cc(O)c21 (stereo not given) | > 100 µM
COc1ccc(-c2cc(-c3ccccc3)nc(N)c2-c2ccc3ccccc3c2)cc1 | 3.71 µM
O=C(Cc1ccccc1)N[C@@H]1COC(=O)C2CCCN2C(=O)[C@@H]2CCCN2C1=O (stereo not given in full) (PhAc-[dS]-Pro-[ξP]; ester 1-C) | > 100 µM

The compounds below were run on OVCAR-8 ovarian (assay: growth of human tumour cells (NCI), 48 h).

Compound | TGI
Cc1ccc2c(=O)cc(-c3ccc(Cl)cc3)[nH]c2n1 | > 100 µM
CCOP(=O)(OCC)/C(=C\n1c(=S)[nH]c2cc(C)ccc21)C(=O)OC | > 100 µM
O=C1C2=Cc3ccccc3OC2(O)Oc2cc(O)cc(O)c21 (stereo not given) | > 100 µM
COc1ccc(-c2cc(-c3ccccc3)nc(N)c2-c2ccc3ccccc3c2)cc1 | 3.09 µM
O=C(Cc1ccccc1)N[C@@H]1COC(=O)C2CCCN2C(=O)[C@@H]2CCCN2C1=O (stereo not given in full) (PhAc-[dS]-Pro-[ξP]; ester 1-C) | > 100 µM

These compounds were tested on PC-3 prostate (assay: growth of human tumour cells (NCI), 48 h).

Compound | TGI
Cc1ccc2c(=O)cc(-c3ccc(Cl)cc3)[nH]c2n1 | > 20.8 µM
O=C1C2=Cc3ccccc3OC2(O)Oc2cc(O)cc(O)c21 (stereo not given) | > 100 µM
COc1ccc(-c2cc(-c3ccccc3)nc(N)c2-c2ccc3ccccc3c2)cc1 | 5.45 µM
O=C(Cc1ccccc1)N[C@@H]1COC(=O)C2CCCN2C(=O)[C@@H]2CCCN2C1=O (stereo not given in full) (PhAc-[dS]-Pro-[ξP]; ester 1-C) | > 100 µM

What follows are compounds tested on RPMI-8226 leukemia (assay: growth of human tumour cells (NCI), 48 h).

Compound | TGI
Cc1ccc2c(=O)cc(-c3ccc(Cl)cc3)[nH]c2n1 | > 49.1 µM
O=C1C2=Cc3ccccc3OC2(O)Oc2cc(O)cc(O)c21 (stereo not given) | > 100 µM
COc1ccc(-c2cc(-c3ccccc3)nc(N)c2-c2ccc3ccccc3c2)cc1 | 4.74 µM

Each compound was assayed on RXF 393 renal (assay: growth of human tumour cells (NCI), 48 h).

Compound | TGI
Cc1ccc2c(=O)cc(-c3ccc(Cl)cc3)[nH]c2n1 | > 100 µM
CCOP(=O)(OCC)/C(=C\n1c(=S)[nH]c2cc(C)ccc21)C(=O)OC | > 100 µM
O=C1C2=Cc3ccccc3OC2(O)Oc2cc(O)cc(O)c21 (stereo not given) | > 100 µM
COc1ccc(-c2cc(-c3ccccc3)nc(N)c2-c2ccc3ccccc3c2)cc1 | 3.39 µM
O=C(Cc1ccccc1)N[C@@H]1COC(=O)C2CCCN2C(=O)[C@@H]2CCCN2C1=O (stereo not given in full) (PhAc-[dS]-Pro-[ξP]; ester 1-C) | > 100 µM

Each compound was assayed on SF-268 CNS (assay: growth of human tumour cells (NCI), 48 h).

Compound | TGI
Cc1ccc2c(=O)cc(-c3ccc(Cl)cc3)[nH]c2n1 | > 100 µM
CCOP(=O)(OCC)/C(=C\n1c(=S)[nH]c2cc(C)ccc21)C(=O)OC | > 100 µM
O=C1C2=Cc3ccccc3OC2(O)Oc2cc(O)cc(O)c21 (stereo not given) | > 100 µM
COc1ccc(-c2cc(-c3ccccc3)nc(N)c2-c2ccc3ccccc3c2)cc1 | 9.2 µM
O=C(Cc1ccccc1)N[C@@H]1COC(=O)C2CCCN2C(=O)[C@@H]2CCCN2C1=O (stereo not given in full) (PhAc-[dS]-Pro-[ξP]; ester 1-C) | > 100 µM

Each compound was assayed on SF-295 CNS (assay: growth of human tumour cells (NCI), 48 h).

Compound | TGI
Cc1ccc2c(=O)cc(-c3ccc(Cl)cc3)[nH]c2n1 | 53.8 µM
CCOP(=O)(OCC)/C(=C\n1c(=S)[nH]c2cc(C)ccc21)C(=O)OC | > 100 µM
O=C1C2=Cc3ccccc3OC2(O)Oc2cc(O)cc(O)c21 (stereo not given) | > 100 µM
O=C(Cc1ccccc1)N[C@@H]1COC(=O)C2CCCN2C(=O)[C@@H]2CCCN2C1=O (stereo not given in full) (PhAc-[dS]-Pro-[ξP]; ester 1-C) | > 100 µM

Each compound was assayed on SF-539 CNS (assay: growth of human tumour cells (NCI), 48 h).

Compound | TGI
Cc1ccc2c(=O)cc(-c3ccc(Cl)cc3)[nH]c2n1 | 36.8 µM
CCOP(=O)(OCC)/C(=C\n1c(=S)[nH]c2cc(C)ccc21)C(=O)OC | > 100 µM
O=C1C2=Cc3ccccc3OC2(O)Oc2cc(O)cc(O)c21 (stereo not given) | > 100 µM
O=C(Cc1ccccc1)N[C@@H]1COC(=O)C2CCCN2C(=O)[C@@H]2CCCN2C1=O (stereo not given in full) (PhAc-[dS]-Pro-[ξP]; ester 1-C) | > 100 µM
